SMILES strings stand for the structures.

Data set [1] deals with Measles morbillivirus. The experiment in a line: Antiviral activity against Measles virus Alaska in Vero cells assessed as inhibition of cytopathic effect. In kind it is functional, organism-based. Background: Cytopathic effects are the visible damage that an infection or toxin causes in cultured cells.
Data set [2] is described as follows: Cytotoxicity against african green monkey Vero cells by MTT assay. In kind it is cell-based. Conditions: chlorocebus sabaeus. For orientation: Formazan colour is commonly taken as a measure of viable cells.
The nature of data set [3]: Cytotoxicity against african green monkey Vero cells by trypan blue exclusion assay. In kind it is cell-based. Conditions: chlorocebus sabaeus.
Data set [4] concerns Measles morbillivirus. Briefly: Antiviral activity against Measles virus Alaska in Vero cells assessed as reduction of viral titer. In kind it is functional, organism-based.
The nature of data set [5]: Selectivity index, ratio of CC50 for Vero cells to EC50 for Measles virus Leningrad 16. Conditions: monkey, read-out: Ratio CC50/EC50. In kind it is toxicity, cell-based.
Data set [6] concerns Measles morbillivirus. The experiment in a line: Antiviral activity against Measles virus Edmonston. In kind it is functional, organism-based.
The nature of data set [7]: (§1) Selectivity index, ratio of CC50 for african green monkey Vero cells to EC50 for Measles virus Alaska. In kind it is toxicity, cell-based. Conditions: read-out: Ratio CC50/EC50.
Data set [8] can be described thus: as §1. In kind it is toxicity, cell-based. Conditions: read-out: Ratio CC50/EC50. The source holds these as a separate data set.

The EC50 is the concentration that produces a half-maximal response. As usually defined, the CC50 is the concentration that lowers cell viability or growth by half. With `CC1CCCCN1S(=O)(=O)c1cccc(NC(=O)c2cc(C(F)(F)F)nn2C)c1` (configuration not stated), the EC50 with Measles morbillivirus [1] was greater than 75 µM. The CC50 in data set [2] worked out at 84 µM.
On to `CC1CCCCN1S(=O)(=O)c1ccc(NC(=O)c2cc(C(F)(F)F)nn2C)cc1` (configuration not stated), for which the EC50 with Measles morbillivirus [1] was less than 2.3 µM; in the data set on Measles morbillivirus [4], 0.029 µM. Moreover, the results for the CC50 in data set [3] and in data set [2] were 54 µM and greater than 300 µM, respectively.
Turning to `CC(C)CN(CC(C)C)S(=O)(=O)c1ccc(NC(=O)c2cc(C(F)(F)F)nn2C)cc1`, the EC50 with Measles morbillivirus [1] was greater than 13.8 µM. In addition, the CC50 in data set [2] is 13.8 µM.
The matching figures for `Cn1nc(C(F)(F)F)cc1C(=O)Nc1ccc(S(=O)(=O)N2CCCCC2C(=O)O)cc1` (configuration not stated): greater than 75 µM and greater than 300 µM.
In the case of `Cn1nc(C(F)(F)F)cc1C(=O)Nc1ccc(S(=O)(=O)N2CCCCCC2)cc1`, the values for the concentration giving a half-maximal response (EC50) in the data set on Measles morbillivirus [1] and in the data set on Measles morbillivirus [4] were less than 2.3 µM and 0.005 µM, respectively. In addition, the CC50 in data set [3] is 425 µM; in data set [2], greater than 300 µM.
In the case of `Cn1nc(C(F)(F)F)cc1C(=O)Nc1ccc(S(=O)(=O)N2CCC(NC(=O)OC(C)(C)C)CC2)cc1`, in the data set on Measles morbillivirus [1], the EC50 worked out at 14.1 µM. In addition, the CC50 in data set [2] was greater than 300 µM.
Regarding `Cn1nc(C(F)(F)F)cc1C(=O)Nc1ccc(S(=O)(=O)N2CCC(N)CC2)cc1`, the EC50 with Measles morbillivirus [1] is greater than 75 µM. The CC50 in data set [2] is greater than 300 µM.
On the same counts, the results for `CC1CCCCN1S(=O)(=O)c1ccccc1NC(=O)c1cc(C(F)(F)F)nn1C` (configuration not stated) are greater than 75 µM and greater than 300 µM.
Regarding `Cn1nc(C(F)(F)F)cc1C(=O)Nc1ccc(S(=O)(=O)n2ccc3ccccc32)cc1`, in the data set with Measles morbillivirus [1], the EC50 was greater than 13 µM.
For `CCC1CCCCN1S(=O)(=O)c1ccc(NC(=O)c2cc(C(F)(F)F)nn2C)cc1` (configuration not stated), the EC50 in the data set on Measles morbillivirus [1] was less than 2.3 µM; with Measles morbillivirus [4] it was 0.087 µM. For the same compound, the figures for the CC50 in data set [3] and in data set [2] were 14 µM and greater than 300 µM, respectively.
For the compound `NC(=O)c1ncn([C@@H]2O[C@H](CO)[C@@H](O)[C@H]2O)n1` [RIBAVIRIN], in data set [5], the selectivity ratio is 14.4.
As to `O=C(O)c1ccccc1-n1nc(C(F)(F)F)cc1C(=O)Nc1ccc(S(=O)(=O)N2CCCC2)cc1`, the EC50 in the data set with Measles morbillivirus [1] and with Measles morbillivirus [4] was greater than 75 µM each time. In addition, the CC50 in data set [3] was greater than 300 µM.
For `Cn1nc(C(F)(F)F)cc1C(=O)Nc1ccc(S(=O)(=O)N2CCNCC2)cc1`, in the data set with Measles morbillivirus [1], the EC50 is 28 µM.
In the data set on Measles morbillivirus [6], `NC(=O)c1ccc([N+](=O)[O-])cc1NC(=O)Cc1ccccc1` had an EC50 of 0.6 µM.
On to `COC(=O)c1ccccc1-n1nc(C(F)(F)F)cc1C(=O)Nc1ccc(S(=O)(=O)N2CCCC2)cc1`, for which the EC50 in the data set on Measles morbillivirus [1] and in the data set with Measles morbillivirus [4] was greater than 75 µM throughout. This compound also returned a CC50 in data set [3] greater than 300 µM.
Turning to `Cn1nc(C(F)(F)F)cc1C(=O)Nc1ccc(S(=O)(=O)N2CCOCC2)cc1`, the EC50 in the data set on Measles morbillivirus [1] came out at 43 µM. Besides, the CC50 in data set [2] is greater than 300 µM.
For the compound `Cn1nc(C(F)(F)F)cc1C(=O)Nc1ccc(S(=O)(=O)N2CCCCC2)cc1`, the EC50 is less than 2.3 µM with Measles morbillivirus [1] and 0.014 µM in the data set on Measles morbillivirus [4]. The selectivity ratio was greater than 130 in data set [7] and 14200 in data set [8]. The compound also registered a CC50 in data set [2] greater than 300 µM.
For the compound `Cn1nc(C(F)(F)F)cc1C(=O)Nc1ccc(S(=O)(=O)N2CCCCC2C(=O)OC(C)(C)C)cc1` (configuration not stated), the EC50 with Measles morbillivirus [1] was greater than 38 µM. The same compound showed a CC50 in data set [2] of 38 µM.
On the same counts, the results for `Cn1nc(C(F)(F)F)cc1C(=O)Nc1ccc(S(=O)(=O)OC2CCCCC2)cc1` are greater than 75 µM and greater than 300 µM.
The matching figures for `C=CCN(CC=C)S(=O)(=O)c1ccc(NC(=O)c2cc(C(F)(F)F)nn2C)cc1`: 3.3 µM and 34 µM.
As to `CCCN(CCC)S(=O)(=O)c1ccc(NC(=O)c2cc(C(F)(F)F)nn2C)cc1`, the results for the EC50 in the data set with Measles morbillivirus [1] and in the data set on Measles morbillivirus [4] were less than 2.3 µM and 0.19 µM, respectively. This compound also registered a CC50 in data set [2] greater than 300 µM.
For `CC1CCCC(C)N1S(=O)(=O)c1ccc(NC(=O)c2cc(C(F)(F)F)nn2C)cc1` (configuration not stated), the EC50 in the data set with Measles morbillivirus [1] was less than 2.3 µM; in the data set on Measles morbillivirus [4], 0.014 µM. For the same compound, the CC50 in data set [3] is 328 µM; in data set [2], greater than 300 µM.
On to `Cn1nc(C(F)(F)F)cc1C(=O)Nc1ccc(S(=O)(=O)N2CCCC(C(=O)O)C2)cc1` (configuration not stated), for which, in the data set on Measles morbillivirus [1], the EC50 is greater than 75 µM. In data set [2], this compound registered a CC50 greater than 300 µM.
As for `CC1CCCCN1S(=O)(=O)c1ccc(NC(=O)c2cc(C(F)(F)F)nn2Cc2ccccc2)cc1` (configuration not stated), the EC50 in the data set on Measles morbillivirus [1] and in the data set with Measles morbillivirus [4] was greater than 19 µM in each case. The CC50 in data set [3] was found to be 19 µM.
As to `COC=C1CCN(S(=O)(=O)c2ccc(NC(=O)c3cc(C(F)(F)F)nn3C)cc2)CC1`, in the data set on Measles morbillivirus [1], the 50% effective concentration (EC50) was greater than 75 µM. For the same compound, in data set [2], the CC50 came out at 92 µM.
The matching figures for `CN(C(=O)c1cc(C(F)(F)F)nn1C)c1ccc(S(=O)(=O)N2CCCCC2)cc1`: greater than 75 µM and 286 µM.
`Cn1nc(C(F)(F)F)c(Br)c1C(=O)Nc1ccc(S(=O)(=O)N2CCCC2)cc1`: the EC50 with Measles morbillivirus [1] is greater than 75 µM. In data set [7], the selectivity ratio is less than 1.3. Also, in data set [2], half-maximal cytotoxicity (CC50) was put at 95 µM.
For `CCN(CC)S(=O)(=O)c1ccc(NC(=O)c2cc(C(F)(F)F)nn2C)cc1`, the EC50 with Measles morbillivirus [1] is less than 2.3 µM; in the data set with Measles morbillivirus [4], 0.019 µM. For the same compound, the CC50 in data set [3] is 280 µM; in data set [2], greater than 300 µM.
In the data set on Measles morbillivirus [6], `Cn1nc(C(F)(F)F)cc1C(=O)Nc1ccc(S(=O)(=O)N2CCCC2)cc1` registered an EC50 of 0.25 µM.
As to `Cn1nc(C(F)(F)F)cc1C(=O)Nc1ccc(S(=O)(=O)N2CCC(C(F)(F)F)CC2)cc1`, the EC50 came to 2.3 µM with Measles morbillivirus [1] and 0.02 µM with Measles morbillivirus [4]. The same compound registered a CC50 in data set [2] of 159 µM.
`CN(C)S(=O)(=O)c1ccc(NC(=O)c2cc(C(F)(F)F)nn2C)cc1`: the EC50 with Measles morbillivirus [1] is 6.3 µM. The same compound yielded a CC50 in data set [2] greater than 300 µM.
On the same counts, the results for `COC(=O)C1CCCCN1S(=O)(=O)c1ccc(NC(=O)c2cc(C(F)(F)F)nn2C)cc1` (configuration not stated) are 10 µM and 136 µM.
Regarding `Cn1nc(C(F)(F)F)cc1C(=O)Nc1ccc(S(=O)(=O)N2CCC(O)CC2)cc1`, the EC50 was 6.8 µM in the data set on Measles morbillivirus [1] and 0.57 µM with Measles morbillivirus [4]. In data set [2], this compound came in with a CC50 of 274 µM.
As to `Cn1nc(C(F)(F)F)cc1C(=O)Nc1ccc(S(=O)(=O)N2CCC[C@H]2C(=O)O)cc1`, the EC50 in the data set with Measles morbillivirus [1] amounted to 23 µM. In data set [2], this compound showed a CC50 greater than 300 µM.
On the same counts, the results for `Cn1nc(C(F)(F)F)cc1C(=O)Nc1ccc(S(=O)(=O)N2CCN(CCOCCO)CC2)cc1` are greater than 75 µM and greater than 300 µM.
With `CC(C)N(C(C)C)S(=O)(=O)c1ccc(NC(=O)c2cc(C(F)(F)F)nn2C)cc1`, the 50% effective concentration (EC50) with Measles morbillivirus [1] was 3.5 µM; in the data set with Measles morbillivirus [4], 0.53 µM. This compound also displayed a CC50 in data set [2] greater than 300 µM.
As to `Cn1nc(C(F)(F)F)cc1C(=O)Nc1ccc(S(=O)(=O)NC2CCCCC2)cc1`, the EC50 in the data set with Measles morbillivirus [1] was greater than 15 µM. The compound further yielded a CC50 in data set [2] of 15 µM.
On to `CCn1nc(C(F)(F)F)cc1C(=O)Nc1ccc(S(=O)(=O)N2CCCCC2C)cc1` (configuration not stated), for which the EC50 in the data set with Measles morbillivirus [1] is less than 2.3 µM; with Measles morbillivirus [4], 0.055 µM. Besides, in data set [2], the CC50 is 30 µM.
On the same counts, the results for `Cn1nc(C(F)(F)F)cc1C(=O)Nc1ccc(S(=O)(=O)N2CCCCCCC2)cc1` are less than 2.3 µM, 0.045 µM and 16 µM.
For `Cn1nc(C(F)(F)F)cc1C(=O)Nc1ccc(S(=O)(=O)N2CCCCC2CO)cc1` (configuration not stated), the EC50 in the data set with Measles morbillivirus [1] is less than 2.3 µM; with Measles morbillivirus [4] it was 0.85 µM.
In turn, `Nc1ccc(O)c(NC(=O)Cc2ccccc2)c1` yielded an EC50 in the data set with Measles morbillivirus [6] of 0.26 µM.
Consider `CC1CCCCN1S(=O)(=O)c1ccc(NC(=O)c2cc(C(F)(F)F)nn2C(C)C)cc1` (configuration not stated), for which the EC50 in the data set with Measles morbillivirus [1] was greater than 75 µM. This compound showed a CC50 in data set [2] greater than 300 µM.
Consider `Cn1nc(C(F)(F)F)cc1C(=O)Nc1ccc(S(=O)(=O)N2CCN(C(=O)OC(C)(C)C)CC2)cc1`, for which the EC50 with Measles morbillivirus [1] was greater than 75 µM. Further, in data set [2], the CC50 is greater than 300 µM.
As for `CC1CCN(S(=O)(=O)c2ccc(NC(=O)c3cc(C(F)(F)F)nn3C)cc2)CC1`, the EC50 was less than 2.3 µM in the data set on Measles morbillivirus [1] and 0.035 µM in the data set with Measles morbillivirus [4]. Besides, the figures for the CC50 in data set [3] and in data set [2] were 53 µM and greater than 300 µM, respectively.

For the origin of these results see ChEMBL document CHEMBL1157461, “Potent non-nucleoside inhibitors of the measles virus RNA-dependent RNA polymerase complex” (J Med Chem, 2008).
